{"source": "the supplement of paper PMC10307832", "experiment_in_all_cases": "relative viability (nuclei count vs DMSO), 5 days (fraction); higher = more cells survive", "key": {"[1]": {"tested_on": "HCC-44", "how_it_was_run": "(§1)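 For relative viability, nuclei counts in treated wells were divided by those in vehicle wells. Lung cancer cell lines had been pin-tool dosed in 1536-well plates the day after seeding and cultured for 5 days, then fixed and stained in one step (final 0.05% Triton X-100, 1% formaldehyde, 1 ug/ml Hoechst) and imaged at 4×. Doses were one drug alone or a fixed anchor-drug dose plus five library-drug doses (not always all listed) in √10 steps, and values are duplicate-plate medians.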"}, "[2]": {"tested_on": "NCI-H650", "how_it_was_run": "as §1"}, "[3]": {"tested_on": "HCC-15", "how_it_was_run": "as §1"}, "[4]": {"tested_on": "NCI-H1437", "how_it_was_run": "as §1"}, "[5]": {"tested_on": "A-427", "how_it_was_run": "as §1"}, "[6]": {"tested_on": "BEN", "how_it_was_run": "as §1"}, "[7]": {"tested_on": "SW 900", "how_it_was_run": "as §1"}, "[8]": {"tested_on": "SK-MES-1", "how_it_was_run": "as §1"}, "[9]": {"tested_on": "HARA", "how_it_was_run": "as §1"}, "[10]": {"tested_on": "NCI-H1792", "how_it_was_run": "as §1"}, "[11]": {"tested_on": "EKVX", "how_it_was_run": "as §1"}}}
{"smiles": "Cc1sc2c(c1C)C(c1ccc(Cl)cc1)=N[C@@H](CC(=O)OC(C)(C)C)c1nnc(C)n1-2", "note": "[JQ1] + CC(=O)Nc1cccc(-n2c(=O)n(C3CC3)c(=O)c3c(Nc4ccc(I)cc4F)n(C)c(=O)c(C)c32)c1 [Trametinib] (partner 0.02 µM)", "values": [{"measurement": "relative viability", "setting": "[1]; first compound 0.04 µM", "result": 1.02}, {"measurement": "relative viability", "setting": "[1]; first compound 0.1265 µM", "result": 1.09}, {"measurement": "relative viability", "setting": "[1]; first compound 0.4 µM", "result": 0.766}, {"measurement": "relative viability", "setting": "[1]; first compound 1.265 µM", "result": 0.649}, {"measurement": "relative viability", "setting": "[1]; first compound 4 µM", "result": 0.493}, {"measurement": "relative viability", "setting": "[2]; first compound 0.04 µM", "result": 0.852}, {"measurement": "relative viability", "setting": "[2]; first compound 0.1265 µM", "result": 0.812}, {"measurement": "relative viability", "setting": "[2]; first compound 0.4 µM", "result": 0.779}, {"measurement": "relative viability", "setting": "[2]; first compound 1.265 µM", "result": 0.371}, {"measurement": "relative viability", "setting": "[2]; first compound 4 µM", "result": 0.275}, {"measurement": "relative viability", "setting": "[3]; first compound 0.04 µM", "result": 0.376}, {"measurement": "relative viability", "setting": "[3]; first compound 0.4 µM", "result": 0.338}, {"measurement": "relative viability", "setting": "[3]; first compound 1.265 µM", "result": 0.31}, {"measurement": "relative viability", "setting": "[3]; first compound 4 µM", "result": 0.28}, {"measurement": "relative viability", "setting": "[4]; first compound 0.04 µM", "result": 0.443}, {"measurement": "relative viability", "setting": "[4]; first compound 0.1265 µM", "result": 0.519}, {"measurement": "relative viability", "setting": "[4]; first compound 0.4 µM", "result": 0.344}, {"measurement": "relative viability", "setting": "[4]; first compound 1.265 µM", "result": 0.35}, {"measurement": "relative viability", "setting": "[4]; first compound 4 µM", "result": 0.26}, {"measurement": "relative viability", "setting": "[5]; first compound 0.04 µM", "result": 0.759}, {"measurement": "relative viability", "setting": "[5]; first compound 0.1265 µM", "result": 0.843}, {"measurement": "relative viability", "setting": "[5]; first compound 0.4 µM", "result": 0.674}, {"measurement": "relative viability", "setting": "[5]; first compound 1.265 µM", "result": 0.466}, {"measurement": "relative viability", "setting": "[5]; first compound 4 µM", "result": 0.52}, {"measurement": "relative viability", "setting": "[6]; first compound 0.04 µM", "result": 1.05}, {"measurement": "relative viability", "setting": "[6]; first compound 0.1265 µM", "result": 0.829}, {"measurement": "relative viability", "setting": "[6]; first compound 0.4 µM", "result": 0.557}, {"measurement": "relative viability", "setting": "[6]; first compound 1.265 µM", "result": 0.481}, {"measurement": "relative viability", "setting": "[6]; first compound 4 µM", "result": 0.41}, {"measurement": "relative viability", "setting": "[7]; first compound 0.04 µM", "result": 0.804}, {"measurement": "relative viability", "setting": "[7]; first compound 0.1265 µM", "result": 0.582}, {"measurement": "relative viability", "setting": "[7]; first compound 0.4 µM", "result": 0.532}, {"measurement": "relative viability", "setting": "[7]; first compound 1.265 µM", "result": 0.205}, {"measurement": "relative viability", "setting": "[7]; first compound 4 µM", "result": 0.204}, {"measurement": "relative viability", "setting": "[8]; first compound 0.04 µM", "result": 0.446}, {"measurement": "relative viability", "setting": "[8]; first compound 0.1265 µM", "result": 0.309}, {"measurement": "relative viability", "setting": "[8]; first compound 0.4 µM", "result": 0.32}, {"measurement": "relative viability", "setting": "[8]; first compound 1.265 µM", "result": 0.24}, {"measurement": "relative viability", "setting": "[8]; first compound 4 µM", "result": 0.259}, {"measurement": "relative viability", "setting": "[9]; first compound 0.04 µM", "result": 0.72}, {"measurement": "relative viability", "setting": "[9]; first compound 0.1265 µM", "result": 0.411}, {"measurement": "relative viability", "setting": "[9]; first compound 0.4 µM", "result": 0.174}, {"measurement": "relative viability", "setting": "[9]; first compound 1.265 µM", "result": 0.184}, {"measurement": "relative viability", "setting": "[9]; first compound 4 µM", "result": 0.304}, {"measurement": "relative viability", "setting": "[10]; first compound 0.04 µM", "result": 0.345}, {"measurement": "relative viability", "setting": "[10]; first compound 0.1265 µM", "result": 0.421}, {"measurement": "relative viability", "setting": "[10]; first compound 0.4 µM", "result": 0.286}, {"measurement": "relative viability", "setting": "[10]; first compound 1.265 µM", "result": 0.191}, {"measurement": "relative viability", "setting": "[10]; first compound 4 µM", "result": 0.186}, {"measurement": "relative viability", "setting": "[11]; first compound 0.04 µM", "result": 0.286}, {"measurement": "relative viability", "setting": "[11]; first compound 0.1265 µM", "result": 0.38}, {"measurement": "relative viability", "setting": "[11]; first compound 0.4 µM", "result": 0.366}, {"measurement": "relative viability", "setting": "[11]; first compound 1.265 µM", "result": 0.432}]}
